Data reported in PubChem BioAssay AID1963976 (Molecular Pharmacology Branch, DTP, NCI, 2024).
Values belong to the compound of their own block, whether it stands above or below them.

Tested on: 435261-313-R-J1-PDC tumor spheroid viability
Assay: Anticancer human tumor 435261-313-R-J1-PDC patient-derived colon adenocarcinoma cell line growth inhibition [PI3K]
Conditions: spheroids with HUVEC and MSC; for IC50: curve of first compound; for viability, T/C: stronger effect = lower value
Procedure, shortened: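 Multi-cell spheroids combine tumor cells with HUVEC and human MSCs, treated with targeted agents alone or with inavolisib, alpelisib, duvelisib or copanlisib. Concentrations fall in half-log steps from at or near clinical Cmax, or from 10 microM where Cmax is unknown; viability read-out.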

[1] = second compound 0.0316 µM, first compound 0.0316 µM
[2] = second compound 0.0316 µM, first compound 0.1 µM
[3] = second compound 0.0316 µM, first compound 0.316 µM
[4] = second compound 0.0316 µM, first compound 1 µM
[5] = second compound 0.0316 µM, first compound 3.16 µM
[6] = second compound 0.0316 µM, first compound 10 µM
[7] = second compound 0.1 µM, first compound 0.0316 µM
[8] = second compound 0.1 µM, first compound 0.1 µM
[9] = second compound 0.1 µM, first compound 0.316 µM
[10] = second compound 0.1 µM, first compound 1 µM
[11] = second compound 0.1 µM, first compound 3.16 µM
[12] = second compound 0.1 µM, first compound 10 µM
[13] = second compound 0.316 µM, first compound 0.0316 µM
[14] = second compound 0.316 µM, first compound 0.1 µM
[15] = second compound 0.316 µM, first compound 0.316 µM
[16] = second compound 0.316 µM, first compound 1 µM
[17] = second compound 0.316 µM, first compound 3.16 µM
[18] = second compound 0.316 µM, first compound 10 µM
[19] = second compound 1 µM, first compound 0.0316 µM
[20] = second compound 1 µM, first compound 0.1 µM
[21] = second compound 1 µM, first compound 0.316 µM
[22] = second compound 1 µM, first compound 1 µM
[23] = second compound 1 µM, first compound 3.16 µM
[24] = second compound 1 µM, first compound 10 µM
[25] = second compound 3.16 µM, first compound 0.0316 µM
[26] = second compound 3.16 µM, first compound 0.1 µM
[27] = second compound 10 µM, first compound 0.0316 µM
[28] = second compound 10 µM, first compound 0.1 µM
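Note: spheroids exposed to compounds for 7 days.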

- IC50 (second compound 0.00316 µM): 3170 nM
- IC50 (second compound 0.01 µM): 31.6 nM
- IC50 (second compound 0.0316 µM): < 31.6 nM
- IC50 (second compound 0.1 µM): < 31.6 nM
- IC50 (second compound 0.316 µM): < 31.6 nM
- IC50 (second compound 1 µM): < 31.6 nM
Compound: CC1(C)CCC(Nc2ncc(C(F)(F)F)c(-c3c[nH]c4c(P(C)(C)=O)c(C#N)ccc34)n2)CN1 (stereo unspecified) + COc1c(OCCCN2CCOCC2)ccc2c3n(c(=NC(=O)c4cnc(N)nc4)nc12)CCN3
- viability, T/C (second compound 0.00316 µM, first compound 0.0316 µM): 56.2%
- viability, T/C (second compound 0.00316 µM, first compound 0.1 µM): 58.8%
- viability, T/C (second compound 0.00316 µM, first compound 0.316 µM): 54.5%
- viability, T/C (second compound 0.00316 µM, first compound 1 µM): 57.2%
- viability, T/C (second compound 0.00316 µM, first compound 3.16 µM): 50.1%
- viability, T/C (second compound 0.00316 µM, first compound 10 µM): 0.44%
- viability, T/C (second compound 0.01 µM, first compound 0.0316 µM): 42.3%
- viability, T/C (second compound 0.01 µM, first compound 0.1 µM): 43.9%
- viability, T/C (second compound 0.01 µM, first compound 0.316 µM): 49.2%
- viability, T/C (second compound 0.01 µM, first compound 1 µM): 47.7%
- viability, T/C (second compound 0.01 µM, first compound 3.16 µM): 58.8%
- viability, T/C (second compound 0.01 µM, first compound 10 µM): 0.48%
- viability, T/C [1]: 31.6%
- viability, T/C [2]: 32.6%
- viability, T/C [3]: 33.7%
- viability, T/C [4]: 30.9%
- viability, T/C [5]: 21.5%
- viability, T/C [6]: 0.35%
- viability, T/C [7]: 17.8%
- viability, T/C [8]: 16.8%
- viability, T/C [9]: 15.5%
- viability, T/C [10]: 18.6%
- viability, T/C [11]: 7.14%
- viability, T/C [12]: 0.28%
- viability, T/C [13]: 7.08%
- viability, T/C [14]: 6.11%
- viability, T/C [15]: 5.71%
- viability, T/C [16]: 5.56%
- viability, T/C [17]: 2.4%
- viability, T/C [18]: 0.23%
- viability, T/C [19]: 3.57%
- viability, T/C [20]: 2.68%
- viability, T/C [21]: 3.18%
- viability, T/C [22]: 2.83%
- viability, T/C [23]: 1.6%
- viability, T/C [24]: 0.23%

- IC50 (second compound 0.0316 µM): > 100 nM
- IC50 (second compound 0.1 µM): > 100 nM
- IC50 (second compound 0.316 µM): 0.316 nM
- IC50 (second compound 1 µM): < 0.316 nM
- IC50 (second compound 3.16 µM): < 0.316 nM
- IC50 (second compound 10 µM): < 0.316 nM
Compound: CC(=O)c1c(C)c2cnc(Nc3ccc(N4CCNCC4)cn3)nc2n(C2CCCC2)c1=O + Cc1nc(NC(=O)N2CCCC2C(N)=O)sc1-c1ccnc(C(C)(C)C(F)(F)F)c1
- viability, T/C (second compound 0.0316 µM, first compound 0.000316 µM): 61.5%
- viability, T/C (second compound 0.0316 µM, first compound 0.001 µM): 91.9%
- viability, T/C (second compound 0.0316 µM, first compound 0.00316 µM): 96.5%
- viability, T/C (second compound 0.0316 µM, first compound 0.01 µM): 66%
- viability, T/C [1]: 88.5%
- viability, T/C [2]: 59.1%
- viability, T/C (second compound 0.1 µM, first compound 0.000316 µM): 68%
- viability, T/C (second compound 0.1 µM, first compound 0.001 µM): 69.4%
- viability, T/C (second compound 0.1 µM, first compound 0.00316 µM): 69.5%
- viability, T/C (second compound 0.1 µM, first compound 0.01 µM): 69.5%
- viability, T/C [7]: 74.7%
- viability, T/C [8]: 66.1%
- viability, T/C (second compound 0.316 µM, first compound 0.000316 µM): 40.9%
- viability, T/C (second compound 0.316 µM, first compound 0.001 µM): 60.9%
- viability, T/C (second compound 0.316 µM, first compound 0.00316 µM): 40.9%
- viability, T/C (second compound 0.316 µM, first compound 0.01 µM): 52.5%
- viability, T/C [13]: 41.3%
- viability, T/C [14]: 32.5%
- viability, T/C (second compound 1 µM, first compound 0.000316 µM): 26.9%
- viability, T/C (second compound 1 µM, first compound 0.001 µM): 27.5%
- viability, T/C (second compound 1 µM, first compound 0.00316 µM): 35.2%
- viability, T/C (second compound 1 µM, first compound 0.01 µM): 33.5%
- viability, T/C [19]: 26.6%
- viability, T/C [20]: 21.2%
- viability, T/C (second compound 3.16 µM, first compound 0.000316 µM): 14.7%
- viability, T/C (second compound 3.16 µM, first compound 0.001 µM): 14.2%
- viability, T/C (second compound 3.16 µM, first compound 0.00316 µM): 13.9%
- viability, T/C (second compound 3.16 µM, first compound 0.01 µM): 16.8%
- viability, T/C [25]: 16.9%
- viability, T/C [26]: 15.9%
- viability, T/C (second compound 10 µM, first compound 0.000316 µM): 10.2%
- viability, T/C (second compound 10 µM, first compound 0.001 µM): 7.93%
- viability, T/C (second compound 10 µM, first compound 0.00316 µM): 7.66%
- viability, T/C (second compound 10 µM, first compound 0.01 µM): 9.02%
- viability, T/C [27]: 10.4%
- viability, T/C [28]: 5.66%

- IC50 (second compound 0.0316 µM): > 10000 nM
- IC50 (second compound 0.1 µM): > 10000 nM
- IC50 (second compound 0.316 µM): < 31.6 nM
- IC50 (second compound 1 µM): < 31.6 nM
- IC50 (second compound 3.16 µM): < 31.6 nM
- IC50 (second compound 10 µM): < 31.6 nM
Compound: CNC(=O)c1ccc(N2C(=S)N(c3ccc(C#N)c(C(F)(F)F)c3)C(=O)C2(C)C)cc1F + Cc1nc(NC(=O)N2CCCC2C(N)=O)sc1-c1ccnc(C(C)(C)C(F)(F)F)c1
- viability, T/C [1]: 81.8%
- viability, T/C [2]: 78.2%
- viability, T/C [3]: 103%
- viability, T/C [4]: 75%
- viability, T/C [5]: 93.5%
- viability, T/C [6]: 84.2%
- viability, T/C [7]: 70.8%
- viability, T/C [8]: 52.1%
- viability, T/C [9]: 71.5%
- viability, T/C [10]: 61.4%
- viability, T/C [11]: 83.7%
- viability, T/C [12]: 77.1%
- viability, T/C [13]: 27.3%
- viability, T/C [14]: 59.3%
- viability, T/C [15]: 46.2%
- viability, T/C [16]: 61.7%
- viability, T/C [17]: 75.8%
- viability, T/C [18]: 45.7%
- viability, T/C [19]: 26.3%
- viability, T/C [20]: 30.4%
- viability, T/C [21]: 24.8%
- viability, T/C [22]: 37.4%
- viability, T/C [23]: 23.9%
- viability, T/C [24]: 25.1%
- viability, T/C [25]: 18.9%
- viability, T/C [26]: 17.4%
- viability, T/C (second compound 3.16 µM, first compound 0.316 µM): 12.7%
- viability, T/C (second compound 3.16 µM, first compound 1 µM): 17.8%
- viability, T/C (second compound 3.16 µM, first compound 3.16 µM): 14%
- viability, T/C (second compound 3.16 µM, first compound 10 µM): 9.85%
- viability, T/C [27]: 9.39%
- viability, T/C [28]: 8.74%
- viability, T/C (second compound 10 µM, first compound 0.316 µM): 8.22%
- viability, T/C (second compound 10 µM, first compound 1 µM): 8.91%
- viability, T/C (second compound 10 µM, first compound 3.16 µM): 8.18%
- viability, T/C (second compound 10 µM, first compound 10 µM): 5.56%
